Test results published in patent EP0486809A2, “Use of suramin against TNF-related diseases” (priority 1990, dated 1992).

Assays:
[1] = molecular target: T1, human TNFa (Homo sapiens, UniProt P01375); experiment: Inhibition by suramin of the cytotoxic activity of TNFa on untreated mouse LM cells (MTT); assay type: cell-based; conditions: measured after 2 days, Figure 6
Experimental: The experiments depicted in Figure 6 were similar to the experiments of Figure 5, except that actinomycin D was omitted from the incubation mixture. In this case the cytotoxic activity of human TNFa was measured after 2 days. […] The degree of inhibition was dependent on the activity of human TNFa employed, i.e. doses of human TNFa exerting high cytotoxic activity were less inhibitable than those exerting lower cytotoxic activity.
3) Inhibition by suramin of the cytotoxic activity of TNF a on untreated mouse LM cells.
On day O logarithmically growing mouse LM cells (Rubin, B.Y. et al. J. Exp. Med. 162 : 1099 (1985)) are trypsinized, centrifuged and resuspended at a final concentration of 5 x 10^4 cells/ml of Eagle's minimun essential medium supplemented with 5% FCS and 1% glutamine (complete MEM). […]
The plates are further incubated for 4 hours at 37 °C. Then, supernatants are discarded, 200 µl of dimethylsulfoxide (DMSO, Farmitalia Carlo Erba) are added to each well and the extent of color development is read on a plate ELISA reader at 570 nm. OD values obtained for each TNF a concentration and each TNFa-suramin mixture are expressed as percent (%) of those obtained for the controll wells containing only complete MEM and complete MEM plus each suramin dilution, respectively.

[2] = molecular target: T1, human TNFa; experiment: Inhibition by suramin of the cytotoxic activity of TNFa on actinomycin D-treated LM cells (MTT); assay type: cell-based; conditions: mouse LM cells treated with actinomycin D, measured the day after; Figure 5
Experimental: In the experiment depicted in Figure 5 different concentrations of human TNFa (Esquire) were incubated, in the absence or presence of different doses of suramin, with mouse LM cells treated with actinomycin D. Treatment with actinomycin D is known to render LM cells more sensitive to the cytotoxic activity of TNFa (Ruff, M.R. and Gifford, G.E., J. lmmunol. 125: 1671 (1980)). The cytotoxic activity of human TNFa was measured the day after.
Inhibition by suramin of the cytotoxic activity of TNF a on actinomycin D - treated LM cells.
The experimental design is similar to that for the assay on untreated LM cells.
The differences are as follows. • 1) 100 µl of a cell-suspension containing 3 x 10^5 cells/ml are added to each well of microtiter plates. • 2) Before setting up the TNFa-cytotoxicity assay, the cells are pretreated for 4 hours at 37 °C with complete MEM (100 µl/well) containing 2 µg/ml actinomycin D (Fluka). • 3) The cytotoxic activity of human TNF a is measured after an incubation period of 24 hours at 37 ° C.

[3] = molecular target: T1, human TNFa; experiment: Inhibition by suramin of the binding of iodinated human TNFa to K562 cells; design: purchased New England Nuclear (NEN), Wilmington, DE; conditions: for IC50: Figure 1, read-out: Inhibitory concentrations 50 (IC50)
Experimental: In the experiment depicted in Figure 1 suramin was mixed, at the indicated doses, with 2.5 x 10^-11M, 10^-10M, or 4 x 10^-10M iodinated human TNFa - (New England Nuclear, NEN, Wilmington, DE). The mixtures were then added immediately to K562 cells. The residual binding of TNF a was measured and compared to the binding to K562 cells in the absence or presence of a 100-fold higher dose of "cold" unlabeled human TNFa (Esquire Chemie AG, Zuerich, Switzerland). […] Higher doses of suramin are required to inhibit the binding of higher doses of iodinated TNFa. […]
1) Inhibition by suramin of the binding of iodinated human TNF a to K562 cells.
lodinated human TNFa (NEN, specific activity = 30 - 70 µCi/µg protein) is diluted so to have concentrations of 1.6 x 10-^9 M, 4 x 10^-10M and 10^-10M in RPMI 1640 medium (Flow, Opera, Italy) supplemented with 2% foetal calf serum (FCS, PBI, Milan, Italy) and 14 mM Hepes (Flow). This medium will hereon be referred to as binding medium (BM). "Cold" unlabeled human TNF a (Esquire) is diluted in BM so to have concentrations of 1.6 x 10^-7M, 4 x 10-^8 M and 10^-8M. Suramin (Bayer, Leverkusen, FRG) is dissolved in BM so to have a concentration of 4 mM. Starting from this solution a series of dilutions are set up in BM.
K562 cells (human chronic myelogenous leukemia, ATCC CCL243) are adjusted to a concentration of 2 x 10^6/ml in BM. 100 µl of the cell suspension are then incubated with 50 µl of each iodinated TNFa concentration and with 50 µl BM or 50 µl of a 100 fold higher concentration of "cold" TNF a or 50 µl of each suramin dilution. The mixtures are incubated for 4 hours at […]. Thereafter the cells are centrifuged through a phthalate-dibutyl phthalate oil mixture (1:1,5 vol/vol, Fluka AG, Buchs, Switzerland). Cell-associated radioactivity is determined in a gamma-counter. Data thus obtained are processed by means of an equilibrium binding data analysis program (EBDA, Elsevir Science Publishers, Amsterdam, Netherlands). […]

[4] = molecular target: T1, human TNFa; experiment: Inhibition by suramin of the binding of iodinated human TNFa to LM cells; design: purchased New England Nuclear (NEN), Wilmington, DE; conditions: binding of 3 x 10^-10M human TNFa to mouse LM cells; Figure 2
Experimental: The mixtures were then added to mouse LM cells. The residual binding of TNFa was measured and compared to the binding to LM cells in the absence or presence of a 100-fold higher dose of "cold" unlabeled human TNFa. […] For the binding assay, 24-well plates (Costar, Vis- mara Associate, Trezzano sul Naviglio, Italy) are used, that have been seeded the day before with mouse LM cells (Rubin, B.Y. et al. J. Exp. Med. 162: 1099 (1985)), 200.000 cells/well. The medium is discarded and replaced with 100 µl BM supplemented with 0.04% Na N3, 50 µl iodinated human TNF a and 50 µl BM or 50 µl cold TNF a or 50 µl of each suramin dilution. After 4 hours at 4°C cells are washed 4 x with BM, solubilized with 2% SDS and cell-associated radioactivity is determined. Data are processed as described before.

T1 sequence (P01375 77-233 limits assumed): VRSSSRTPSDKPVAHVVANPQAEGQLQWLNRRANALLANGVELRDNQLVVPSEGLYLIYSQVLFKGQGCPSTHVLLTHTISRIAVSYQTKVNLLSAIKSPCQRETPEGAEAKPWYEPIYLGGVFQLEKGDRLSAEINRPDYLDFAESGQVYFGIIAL

IC50 ([3]; binding of 2.5 x 10-"M human TNFa to human K562 cells): 78 µM
IC50 ([3]; binding of 4 x 10-'°M human TNFa to human K562 cells): 180 µM
IC50 ([3]; binding of 10^-10M human TNFa to human K562 cells): 126 µM
inhibition of the binding of TNFa to K562 ([3]; sequential addition of suramin and 10^-10M TNFa, K562 cells washed in between, Figure 4): no inhibition
IC50 [4]: 175 µM
SMILES: Cc1ccc(C(=O)Nc2ccc(S(=O)(=O)O)c3cc(S(=O)(=O)O)cc(S(=O)(=O)O)c23)cc1NC(=O)c1cccc(NC(=O)Nc2cccc(C(=O)Nc3cc(C(=O)Nc4ccc(S(=O)(=O)O)c5cc(S(=O)(=O)O)cc(S(=O)(=O)O)c45)ccc3C)c2)c1 [suramin, 8,8' - (carbonylbis(imino-3,1-phenylenecarbonylimino (4-methyl-3,1-phenylene)carbonylimino)) bis-1,3 ,5-naphthalenetrisulfonic acid]
inhibition of the cytotoxic activity of human TNFa [1]: inhibited, in a dose- dependent manner
inhibition of the cytotoxic activity of human TNFa [2]: inhibited, in a dose- dependent manner
